Changes are numbered by the printed parent chain.
Assays:
[1] = target: T1, AtPPO1 S305L Y361T V365L T431R L479M (SEQ ID NO.130) (Arabidopsis thaliana, UniProt P55826, L479M/S305L/T431R/V365L/Y361T); test: fluorescent Protoporphyrinogen Oxidase assay, crude extract; format: biochemical; conditions: read-out: percentage inhibition
T1 construct: made in house; host or cells: E. coli BL21 (DE3) hemG, crude extract
T1 sequence (P55826 35-537 S305L/Y361T/V365L/T431R/L479M): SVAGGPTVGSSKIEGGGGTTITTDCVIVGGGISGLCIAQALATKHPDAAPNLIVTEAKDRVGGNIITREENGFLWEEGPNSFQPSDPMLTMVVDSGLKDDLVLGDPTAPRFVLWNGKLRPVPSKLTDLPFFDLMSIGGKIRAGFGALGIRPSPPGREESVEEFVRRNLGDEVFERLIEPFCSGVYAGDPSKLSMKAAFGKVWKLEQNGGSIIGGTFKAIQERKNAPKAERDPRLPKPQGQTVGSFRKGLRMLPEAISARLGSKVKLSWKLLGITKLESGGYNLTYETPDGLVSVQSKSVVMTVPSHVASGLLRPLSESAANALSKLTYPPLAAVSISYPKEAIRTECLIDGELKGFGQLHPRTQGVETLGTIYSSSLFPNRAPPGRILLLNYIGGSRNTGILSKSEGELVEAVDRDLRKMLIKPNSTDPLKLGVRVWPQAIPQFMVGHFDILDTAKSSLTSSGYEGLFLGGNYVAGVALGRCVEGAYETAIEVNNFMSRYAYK
Experimental: (§1) A pET24 plasmid containing a DNA sequence encoding each identified variant mutant of AtPPO1 derived from Arabidopsis thaliana, codon-optimised for expression in E. coli, and under control of a T7 promoter, was synthesised by Twist Bioscience. This plasmid was expressed in E. coli BL21 (DE3) hemG with 50 μg/mL kanamycin and 25 μg/mL chloramphenicol selection. Overnight cultures grown at 37° C. were used to inoculate 150 ml AIM (AIM-Terrific Broth Base including Trace elements, Formedium) in 500 ml shake flasks at a ratio of 1:100. Cultures were grown at 37° C., 200 rpm for 3 hours and then overnight at 26° C. Cells were harvested by 4° C. centrifugation for 20 minutes at 600 rpm. Cells were stored at −80° C. until extraction. 0.5-1 g of cell pellet from was thawed and resuspended in ratio of 1:1 in lysis buffer (20 mM Tris pH8, 500 mM sodium chloride, 10% glycerol, 1× complete Protease EDTA-free Inhibitor Tablet (Roche)). The resuspension was sonicated at 50% using 10-20 cycles of 10 seconds, 20 seconds off. After sonication Triton X-100 was added to the lysates at a final concentration of 0.5%. The lysates were centrifuged at 13.00 rpm for 10 min at 4° C. The crude extracts (i.e, supernatants) were stored at −80° C. Protein concentration was measured and calculated using the absorbance at 280 nm. Extracts were diluted 1 in 4 and 10 uL was analysed by SDS PAGE.
(§2) Variant crude extracts were assayed in a fluorescent Protoporphyrinogen Oxidase assay in black 384 well plates with a clear bottom. The total volume of the reaction mixture was 100 ul and contained 100 mM K2HPO4 pH7.2, 1 mM Na2EDTA, 5 mM DTT, 20% glycerol (v/v), 0.025% Tween 20 (v/v). Reactions were started with addition of 1 uM protoporphyrinogen IX final assay concentration. Fluorescence was monitored over 30 min using a Tecan plate reader with an excitation wavelength of 405 nm, emission wavelength of 635 nm, gain of 90 and 15 flashes. 10 ul of 3-fold serial dilution of crude extract in 100 mM K2HPO4 pH7.2, 1 mM Na2EDTA, 5 mM DTT, 20% glycerol (v/v), 0.05% Tween 20 (v/v) was tested in the assay against 1% DMSO and 100 ppm herbicide B to determine the correct amount of crude extract to add to the assay to observe activity. 10 ul of the appropriate crude extract dilution was then tested in the fluorescent Protoporphyrinogen Oxidase assay against DMSO and 10-fold dose response of each compound (herbicides A to E) with a top rate of 100 ppm.
(§3) The percentage inhibition was calculated as the activity in the presence of one of four concentrations of each herbicide compound A to E (note that the compounds labelled as A to E are identified hereinabove in the relevant section of the description) as a percentage of the enzyme activity in DMSO (Table 5).

[2] = target: T2, AtPPO1 V365L Y426V L479N (SEQ ID NO.126) (Arabidopsis thaliana, UniProt P55826, L479N/V365L/Y426V); test: as above; format: biochemical; conditions: read-out: percentage inhibition
T2 construct: made in house; host or cells: E. coli BL21 (DE3) hemG, crude extract
T2 sequence (P55826 35-537 V365L/Y426V/L479N): T1 sequence (P55826 35-537 S305L/Y361T/V365L/T431R/L479M) with L271S, T327Y, Y392V, R397T, M445N
Experimental: as §1, §2, §3

Row | Structure (SMILES) | inhibition at 0.1 ppm [1] | inhibition at 1 ppm [1] | inhibition at 10 ppm [1] | inhibition at 100 ppm [1] | inhibition at 0.1 ppm [2] | inhibition at 1 ppm [2] | inhibition at 10 ppm [2] | inhibition at 100 ppm [2]
1 | CCOC(=O)[C@]1(C)CC(c2cc(-n3c(=O)n(C)c(=S)n(C)c3=O)c(F)cc2Cl)=NO1 [Herbicide D, ethyl (5S)-3-[2-chloro-5-(3,5-dimethyl-2,6-dioxo-4-thioxo-1,3,5-triazinan-1-yl)-4-fluoro-phenyl]-5-methyl-4H-isoxazole-5-carboxylate] | 12% | 42% | 89% | 92% | 12% | 33% | 89% | 98%
2 | CCOC(=O)C1(C)CC(c2cc(-n3c(=O)cc(C(F)(F)F)n(C)c3=O)c(F)cc2Cl)=NO1 (stereo not drawn) [Herbicide C, 3-(2-chloro-4-fluoro-5-(3-methyl-2,6-dioxo-4-trifluoromethyl-3,6-dihydropyrimidin-1(2H)-yl)phenyl)-5-methyl-4,5-dihydroisoxazole-5-carboxylic acid ethyl ester] |  | 78% | 99% | 97% | 4% | 44% | 82% | 93%
3 | CCOC(=O)COc1ncccc1Oc1cc(-n2c(=O)cc(C(F)(F)F)n(C)c2=O)c(F)cc1Cl [Herbicide A, epyrifenacil] | 15% | 69% | 99% | 94% | 0% | 36% | 73% | 90%
4 | C#CCN1C(=O)C(F)(F)Oc2cc(F)c(-n3c(=O)n(C)c(=S)n(C)c3=O)cc21 [Herbicide B, trifludimoxazin] | 41% | 100% | 97% | 98% | 98% | 100% | 100% | 100%
5 | CC(C)N(C)S(=O)(=O)NC(=O)c1cc(-n2c(=O)cc(C(F)(F)F)n(C)c2=O)c(F)cc1Cl [Herbicide E, saflufenacil] | 9% | 45% | 82% | 91% | 0% | 22% | 77% | 94%
